Measurements as given in the NIST ThermoML archive (doi:10.1016/j.fluid.2008.03.015).
Several values for one entry are separate records, joined by “and”; a condition that tells them apart may be missing. Identical values can stand only once.

Conditions: Liquid, Closed cell (Static) method

CCOCC [diethyl ether]
Conditions | vapor or sublimation pressure
255.47 K | 10.11 kPa
255.48 K | 10.13 kPa
255.5 K | 10.14 kPa
265.44 K | 17.06 kPa
265.45 K | 17.07 kPa
274.86 K | 26.9 kPa
274.87 K | 26.91 kPa
284.83 K | 41.98 kPa
284.84 K | 42 kPa
294.77 K | 62.89 kPa
294.78 K | 62.93 kPa
304.75 K | 91.58 kPa and 91.56 kPa
304.76 K | 91.6 kPa
314.74 K | 129.3 kPa and 129.45 kPa
314.75 K | 129.42 kPa
324.89 K | 179.51 kPa and 179.65 kPa and 179.77 kPa

ClCCCl [1,2-dichloroethane]
Conditions | vapor or sublimation pressure
284.86 K | 5.38 kPa
284.87 K | 5.37 kPa
294.83 K | 8.96 kPa
294.84 K | 8.95 kPa
304.82 K | 14.33 kPa and 14.32 kPa
314.81 K | 22.18 kPa
314.83 K | 22.18 kPa
324.82 K | 33.28 kPa
324.83 K | 33.27 kPa
334.79 K | 48.45 kPa
334.82 K | 48.46 kPa
344.81 K | 67.97 kPa
344.82 K | 67.98 kPa
354.89 K | 94.95 kPa and 94.94 kPa

COC(C)(C)C [2-methoxy-2-methylpropane]
Conditions | vapor or sublimation pressure
274.9 K | 11.59 kPa
274.91 K | 11.59 kPa
284.82 K | 18.55 kPa
294.8 K | 28.78 kPa
294.81 K | 28.78 kPa
304.79 K | 43.24 kPa and 43.26 kPa
314.75 K | 62.95 kPa
314.76 K | 62.97 kPa
324.9 K | 89.66 kPa and 89.69 kPa
334.85 K | 124.02 kPa
344.84 K | 167.14 kPa
344.85 K | 167.57 kPa
354.82 K | 221.79 kPa and 221.39 kPa

CC(C)OC(C)C [diisopropyl ether]
Conditions | vapor or sublimation pressure
284.93 K | 10.74 kPa and 10.75 kPa
294.9 K | 17.21 kPa
294.91 K | 17.21 kPa
304.87 K | 26.57 kPa
304.89 K | 26.58 kPa
314.86 K | 39.71 kPa
314.87 K | 39.72 kPa
324.85 K | 57.64 kPa
324.87 K | 57.65 kPa
334.85 K | 81.41 kPa and 81.42 kPa
344.84 K | 112.36 kPa
344.85 K | 112.39 kPa
354.87 K | 151.81 kPa
354.88 K | 151.82 kPa
